Results on 14 compounds are retold here after patent US20250114345A1, “COMPOUNDS AND COMPOSITIONS AS CBP/P300 DEGRADERS AND USES THEREOF” (Oncopia Therapeutics, Inc. d/b/a/ SK Life Science Labs, priority 2023, published 2025).

Broadly, the Dmax is the largest share of the target that was removed. A word on the DC50: it is the midpoint of the concentration-degradation curve. Lower therefore signals a more potent degrader.

The experiment deals with T1, p300 (Homo sapiens, UniProt Q09472).
T1 construct: host or cells: A549 P300 HiBit cells
T1 sequence (Q09472 whole entry): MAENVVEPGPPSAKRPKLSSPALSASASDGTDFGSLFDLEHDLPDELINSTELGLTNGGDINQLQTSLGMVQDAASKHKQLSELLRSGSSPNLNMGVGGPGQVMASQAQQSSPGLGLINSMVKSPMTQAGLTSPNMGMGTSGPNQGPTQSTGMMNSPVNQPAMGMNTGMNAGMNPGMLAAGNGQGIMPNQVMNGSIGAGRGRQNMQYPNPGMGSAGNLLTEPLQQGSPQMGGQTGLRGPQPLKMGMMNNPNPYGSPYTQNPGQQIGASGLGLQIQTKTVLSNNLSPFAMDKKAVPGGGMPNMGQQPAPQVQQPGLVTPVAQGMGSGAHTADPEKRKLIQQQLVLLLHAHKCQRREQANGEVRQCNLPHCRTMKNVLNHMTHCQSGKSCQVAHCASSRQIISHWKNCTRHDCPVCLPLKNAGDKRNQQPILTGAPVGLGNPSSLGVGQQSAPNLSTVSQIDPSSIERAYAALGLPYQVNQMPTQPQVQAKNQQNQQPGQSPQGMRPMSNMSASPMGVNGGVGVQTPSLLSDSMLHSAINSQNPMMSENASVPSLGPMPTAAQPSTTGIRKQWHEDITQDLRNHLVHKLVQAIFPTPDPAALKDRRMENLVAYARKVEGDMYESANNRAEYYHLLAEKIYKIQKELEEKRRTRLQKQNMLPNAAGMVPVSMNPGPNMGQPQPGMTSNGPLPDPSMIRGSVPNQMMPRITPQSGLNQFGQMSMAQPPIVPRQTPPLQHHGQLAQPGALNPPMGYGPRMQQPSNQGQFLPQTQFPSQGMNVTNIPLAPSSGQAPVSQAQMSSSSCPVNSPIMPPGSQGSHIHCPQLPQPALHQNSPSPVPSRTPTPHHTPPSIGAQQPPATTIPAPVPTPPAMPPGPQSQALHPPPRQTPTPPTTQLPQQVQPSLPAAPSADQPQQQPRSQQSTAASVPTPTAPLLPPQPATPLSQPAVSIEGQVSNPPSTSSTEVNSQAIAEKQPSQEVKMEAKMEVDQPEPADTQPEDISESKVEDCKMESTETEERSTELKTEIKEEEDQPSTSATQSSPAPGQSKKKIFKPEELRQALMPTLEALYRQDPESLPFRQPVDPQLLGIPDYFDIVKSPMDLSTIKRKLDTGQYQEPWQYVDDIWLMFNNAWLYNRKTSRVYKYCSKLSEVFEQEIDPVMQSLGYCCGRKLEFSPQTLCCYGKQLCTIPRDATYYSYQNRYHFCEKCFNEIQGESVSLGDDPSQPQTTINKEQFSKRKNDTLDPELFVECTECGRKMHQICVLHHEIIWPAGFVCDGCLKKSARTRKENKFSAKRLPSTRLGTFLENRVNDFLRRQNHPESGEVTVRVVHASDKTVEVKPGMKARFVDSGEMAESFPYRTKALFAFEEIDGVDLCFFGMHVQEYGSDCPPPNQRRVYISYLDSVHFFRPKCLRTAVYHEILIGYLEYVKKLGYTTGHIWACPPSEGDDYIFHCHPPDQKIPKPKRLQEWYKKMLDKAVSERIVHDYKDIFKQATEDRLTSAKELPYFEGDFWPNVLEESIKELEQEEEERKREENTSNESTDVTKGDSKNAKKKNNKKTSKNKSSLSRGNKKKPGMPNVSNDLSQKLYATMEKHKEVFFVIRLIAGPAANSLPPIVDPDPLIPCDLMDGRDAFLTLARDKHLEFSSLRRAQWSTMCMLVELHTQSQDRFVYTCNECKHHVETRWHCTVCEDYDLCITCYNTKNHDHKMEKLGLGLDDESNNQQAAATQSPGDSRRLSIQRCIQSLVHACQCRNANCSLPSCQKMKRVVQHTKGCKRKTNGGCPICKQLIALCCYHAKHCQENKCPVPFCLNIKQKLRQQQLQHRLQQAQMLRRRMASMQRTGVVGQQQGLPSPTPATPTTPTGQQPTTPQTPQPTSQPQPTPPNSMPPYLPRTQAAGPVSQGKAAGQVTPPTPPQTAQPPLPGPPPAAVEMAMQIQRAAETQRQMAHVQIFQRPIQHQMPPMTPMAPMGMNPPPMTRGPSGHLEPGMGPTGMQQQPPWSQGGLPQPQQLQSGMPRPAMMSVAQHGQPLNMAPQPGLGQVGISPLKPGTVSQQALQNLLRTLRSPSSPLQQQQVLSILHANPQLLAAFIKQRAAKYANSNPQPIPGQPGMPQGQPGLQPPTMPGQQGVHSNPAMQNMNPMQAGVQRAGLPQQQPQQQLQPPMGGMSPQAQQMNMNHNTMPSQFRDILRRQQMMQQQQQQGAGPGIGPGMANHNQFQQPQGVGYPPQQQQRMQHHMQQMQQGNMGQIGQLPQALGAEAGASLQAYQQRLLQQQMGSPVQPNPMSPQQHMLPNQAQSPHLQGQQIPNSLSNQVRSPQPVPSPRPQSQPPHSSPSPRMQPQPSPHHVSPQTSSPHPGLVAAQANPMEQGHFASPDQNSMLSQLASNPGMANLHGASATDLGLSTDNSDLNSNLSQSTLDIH
Nature of the experiment: P300 degradation, HiBit technology in A549 P300 HiBit cells (2 h). It counts as cell-based. Particulars: 2 hrs post treatment; for Dmax: A549, A549 P300 HiBit cells; for DC50: A549 P300 HiBit cells. In outline:
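Luminescence after lytic HiBiT detection (10 min, room temperature) gave degradation potency and Dmax. Before that, knock-in A549 cells grown overnight in F-12K/10% HI-FBS were exposed to serially diluted compound at 37 °C, 5% CO2 for the assay time stated.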
(In general: With HiBiT, luminescence reflects the tagged protein that the partner subunit can reach.)

`CC(C)c1cc(C(F)(F)c2ccc(-c3ccc(C(=O)NCC#Cc4ccc5occ(C6CCC(=O)NC6=O)c5c4)nc3)nc2)cc2c1n(C)c(=O)n2C` (stereo not shown) [Example A81, 5-(difluoro(7-isopropyl-1,3-dimethyl-2-oxo-2,3-dihydro-1H-benzo[d]imidazol-5-yl)methyl)-N-(3-(3-(2,6-dioxopiperidin-3-yl)benzofuran-5-yl)prop-2-yn-1-yl)-[2,3′-bipyridine]-6′-carboxamide] registered a Dmax of less than 20% and a half-maximal degradation concentration (DC50) greater than 1000 nM.

Regarding `[2H]C([2H])([2H])N(c1cnc(-c2cnc(C(=O)NCC#Cc3ccc4occ(C5CCC(=O)NC5=O)c4c3)c(C)c2)nc1)c1cc(C2CCOCC2)c2c(c1)n(C)c(=O)n2C` (stereo not shown) [Example A82, 5-(5-((1,3-dimethyl-2-oxo-7-(tetrahydro-2H-pyran-4-yl)-2,3-dihydro-1H-benzo [d]imidazol-5-yl) (methyl-d3)amino)pyrimidin-2-yl)-N-(3-(3-(2,6-dioxo-piperidin-3-yl)benzofuran-5-yl)prop-2-yn-1-yl)-3-methylpicolinamide], the maximal degradation (Dmax) was greater than 80% and the 50% degradation concentration (DC50) lay within 1 to 9.9 nM.

The compound `CC(C)c1cc(C2CC(C)(C)Oc3cc(-c4ccc(C(=O)NCC#Cc5ccc6occ(C7CCC(=O)NC7=O)c6c5)nc4)c(F)cc32)cc2c1n(C)c(=O)n2C` (stereo not shown) [Example A85, N-(3-(3-(2,6-dioxo-piperidin-3-yl)benzofuran-5-yl)prop-2-yn-1-yl)-5-(6-fluoro-4-(7-isopropyl-1,3-dimethyl-2-oxo-2,3-dihydro-1H-benzo [d]imidazol-5-yl)-2,2-dimethylchroman-7-yl)picolinamide] displayed a Dmax greater than 80% and a 50% degradation concentration (DC50) of 1 to 9.9 nM.

`Cc1cc(-c2ncc(N(C)c3cc(C4CCOCC4)c4c(c3)n(C)c(=O)n4C)nn2)cnc1C(=O)NCC#Cc1ccc2occ(C3CCC(=O)NC3=O)c2c1` (stereo not shown) [Example A90, 5-(6-((1,3-dimethyl-2-oxo-7-(tetrahydro-2H-pyran-4-yl)-2,3-dihydro-1H-benzo[d]imidazol-5-yl)(methyl)amino)-1,2,4-triazin-3-yl)-N-(3-(3-(2,6-dioxopiperidin-3-yl)benzofuran-5-yl)prop-2-yn-1-yl)-3-methylpicolinamide] returned a Dmax of less than 20% and a DC50 of 1 to 9.9 nM.

In turn, `Cc1cc(-c2ncc3c(n2)OCCN3c2cc3c(c(N4CCOCC4)n2)n(C)c(=O)n3C)cnc1C(=O)NCC#Cc1ccc2occ(C3CCC(=O)NC3=O)c2c1` (stereo not shown) [Example A91, 5-(5-(1,3-dimethyl-4-morpholino-2-oxo-2,3-dihydro-1H-imidazo[4,5-c]pyridin-6-yl)-6,7-dihydro-5H-pyrimido[4,5-b][1,4]oxazin-2-yl)-N-(3-(3-(2,6-dioxopiperidin-3-yl)benzofuran-5-yl)prop-2-yn-1-yl)-3-methylpicolinamide] had a Dmax of less than 20% and a 50% degradation concentration (DC50) of 10 to 99 nM.

Compound `Cc1cc(-c2cc3c(cc2C(F)F)N(c2ccc4c(c2)n(C)c(=O)n4C)CCC3)cnc1C(=O)NCC#Cc1ccc2occ(C3CCC(=O)NC3=O)c2c1` (stereo not shown) [Example A94, 5-(7-(difluoromethyl)-1-(1,3-dimethyl-2-oxo-2,3-dihydro-1H-benzo[d]imidazol-5-yl)-1,2,3,4-tetrahydro-quinolin-6-yl)-N-(3-(3-(2,6-dioxopiperidin-3-yl)benzofuran-5-yl)prop-2-yn-1-yl)-3-methylpicolinamide] registered a Dmax greater than 80% and a 50% degradation concentration (DC50) of 1 to 9.9 nM.

`Cc1cc(-c2ncc(N(C)c3cc(C(C)C)c4c(c3)n(C)c(=O)n4C)cc2C#N)cnc1C(=O)NCC#Cc1ccc2occ(C3CCC(=O)NC3=O)c2c1` (stereo not shown) [Example A98, 3-cyano-N-(3-(3-(2,6-dioxopiperidin-3-yl)benzofuran-5-yl)prop-2-yn-1-yl)-5-((7-isopropyl-1,3-dimethyl-2-oxo-2,3-dihydro-1H-benzo[d]imidazol-5-yl)(methyl)amino)-5′-methyl-[2,3′-bipyridine]-6′-carboxamide] returned a maximal degradation (Dmax) greater than 80% and a 50% degradation concentration (DC50) of 1 to 9.9 nM.

With `Cn1c(=O)oc2ccc(-c3cccc4cc(-c5ccc(C(=O)NCC#Cc6ccc7occ(C8CCC(=O)NC8=O)c7c6)nc5)ncc34)cc21` (stereo not shown) [Example A101, N-(3-(3-(2,6-dioxo-piperidin-3-yl)benzofuran-5-yl)prop-2-yn-1-yl)-5-(8-(3-methyl-2-oxo-2,3-dihydrobenzo[d]oxazol-5-yl)isoquinolin-3-yl)picolinamide], the Dmax was less than 20% and the DC50 was greater than 1000 nM.

`Cc1cc(-c2ncc(N(C)c3ccc4c(c3)n(C)c(=O)n4C)cn2)cnc1C(=O)NCC#Cc1ccc2occ(C3CCC(=O)NC3=O)c2c1` (stereo not shown) [Example A103, 5-(5-((1,3-dimethyl-2-oxo-2,3-dihydro-1H-benzo[d]imidazol-5-yl)(methyl)amino)pyrimidin-2-yl)-N-(3-(3-(2,6-dioxopiperidin-3-yl)benzofuran-5-yl)prop-2-yn-1-yl)-3-methylpicolinamide]: the maximal degradation (Dmax) is 60 to 79% and the 50% degradation concentration (DC50) lay within 1 to 9.9 nM.

Compound `CN1C(=O)Cc2cc(-c3cccc4cc(-c5ccc(C(=O)NCC#Cc6ccc7occ(C8CCC(=O)NC8=O)c7c6)nc5)ncc34)ccc21` (stereo not shown) [Example A104, N-(3-(3-(2,6-dioxo-piperidin-3-yl)benzofuran-5-yl)prop-2-yn-1-yl)-5-(8-(1-methyl-2-oxoindolin-5-yl)isoquinolin-3-yl)picolinamide] yielded a maximal degradation (Dmax) of less than 20% and a DC50 greater than 1000 nM.

`CC(C#Cc1ccc2occ(C3CCC(=O)NC3=O)c2c1)NC(=O)c1ccc(-c2ncc(N(C)c3cc(C(C)C)c4c(c3)n(C)c(=O)n4C)cn2)cn1` (stereo not shown) [Example A105, N-(4-(3-(2,6-dioxo-piperidin-3-yl)benzofuran-5-yl)but-3-yn-2-yl)-5-(5-((7-isopropyl-1,3-dimethyl-2-oxo-2,3-dihydro-1H-benzo [d]imidazol-5-yl)(methyl)amino)pyrimidin-2-yl)picolinamide] showed a Dmax of less than 20% and a half-maximal degradation concentration (DC50) greater than 1000 nM.

On to `CC(C)c1cc(N(C)c2cnc(-c3ccc(C(=O)NCC#Cc4ccc5occ(C6CCC(=O)NC6=O)c5c4)nc3)nc2)cc2c1n(C)c(=O)n2C` (stereo not shown) [Example A106, N-(3-(3-(2,6-dioxo-piperidin-3-yl)benzofuran-5-yl)prop-2-yn-1-yl)-5-(5-((7-isopropyl-1,3-dimethyl-2-oxo-2,3-dihydro-1H-benzo [d]imidazol-5-yl)(methyl)amino)pyrimidin-2-yl)picolinamide], for which the greatest degradation seen (Dmax) is greater than 80% and the half-maximal degradation concentration (DC50) lay in the range of 1 to 9.9 nM.

On to `Cc1cc(-c2cn(C)c(=O)c3cc(-c4ccc(C(=O)NCC#Cc5ccc6occ(C7CCC(=O)NC7=O)c6c5)nc4)ncc23)cc2c1n(C)c(=O)n2C` (stereo not shown) [Example A107, N-(3-(3-(2,6-dioxo-piperidin-3-yl)benzofuran-5-yl)prop-2-yn-1-yl)-5-(6-methyl-5-oxo-8-(1,3,7-trimethyl-2-oxo-2,3-dihydro-1H-benzo[d]imidazol-5-yl)-5,6-dihydro-2,6-naphthyridin-3-yl)picolinamide], for which the maximal degradation (Dmax) was greater than 80% and the DC50 is less than 1 nM.

For `CC(C)c1cc(N2CCOc3cc(-c4ccc(C(=O)NCC#Cc5ccc6occ(C7CCC(=O)NC7=O)c6c5)nc4)c(F)cc32)cc2c1n(C)c(=O)n2C` (stereo not shown) [Example A110, N-(3-(3-(2,6-dioxo-piperidin-3-yl)benzofuran-5-yl)prop-2-yn-1-yl)-5-(6-fluoro-4-(7-isopropyl-1,3-dimethyl-2-oxo-2,3-dihydro-1H-benzo[d]imidazol-5-yl)-3,4-dihydro-2H-benzo[b][1,4]oxazin-7-yl)picolinamide], the Dmax was greater than 80% and the 50% degradation concentration (DC50) is 1 to 9.9 nM.
